Measured values from patent US8748412B2, “Phenylalanine derivatives and their use as non-peptide GLP-1 receptor modulators” (Argusina Bioscience Inc., priority 2011, dated 2014).

Target: T1, human GLP1R (Homo sapiens, UniProt P43220)
T1 construct: expressed in transfected cells; host or cells: CHO cells (ATCC), transient transfection with pCMV-human GLP1R
Assay: Human GLP-1 receptor transfected cell assay (MRE/CRE-luciferase reporter gene, agonist activity)
Assay type: cell-based
Details: for activation at 5 µM / activation at 3.16 µM / activation at 10 µM / activation at 3 µM / activation at 1 µM: 6 h, read-out: Activity (agonist), percentage of the activity of the control; for activation at 5 µM: concentration 5 μM; for activation at 3.16 µM: concentration 3.16 μM; for activation at 3 µM: concentration 3 μM; for activation at 1 µM: concentration 1 μM
Method: The glucagon-like peptide I receptor (GLP1R) is a class B Gs-coupled membrane receptor, an agonist of which activates adenylate cyclase (AC) and elevates intracellular cAMP level. In turn, the high content of secondary messengers can activate the cAMP response element binding protein (CREB), which can translocate into nucleus to activate gene transcription.
A reporter gene based screening assay was established to measure the effect of a compound on GLP1R. In this assay, a compound was incubated with CHO cells transiently transfected with a human GLP1R plasmid and a multiple response element (MRE)/cAMP response element (CRE)-driven luciferase reporter plasmid. Once luciferase was induced by the compound, its specific substrate can be activated to produce light signal for measurement.
Materials used in this assay included: (i) cell line: Chinese hamster ovary (CHO) cells (ATCC); (ii) fetal bovine serum (FBS) (Biochrom Co.); (iii) culture medium: RPMI1640 (Invitrogen Co.) supplemented with 10% FBS; (iv) LIPOFECTAMINE™ 2000 Reagent (Invitrogen Co.); (v) plasmids: pCMV-human GLP1R and pGL3-1905 reporter plasmid; (vi) GLP1 (7-36 amide) peptide (Sigma Co.); and (vii) BRIGHT-GLO™ Luciferase Assay System (Promega Co.).
Instruments used in this assay included: (i) Form a carbon dioxide incubator (Thermo Form a Co.); and (ii) Flexstation 3 (Molecular Device Co.).
Before transfection, CHO cells were plated into a 6-well culture plate at 800,000/2 mL/well, and cultured at 37° C. in 5% CO2 overnight. On the transfection day, cells were transfected with receptor plasmid and reporter plasmid using LIPOFECTAMINE™ 2000 reagent. After 6-hour transfection, cells were digested and seeded into 96-well plates at 20,000/100 μL/well. After 14-16 hour incubation, transfected cells were washed with 100 μL serum-free RPMII 640 medium first, and then added 50 μL of the culture medium. The GLP-1 standard and test compounds were respectively diluted to a series of concentrations, which were then added into the above 96-well culture plate at 50 μL/well. The cells were incubated at 37° C. in 5% CO2 for 6 hrs. The activity of luciferase was detected using BRIGHT-GLO™ Luciferase Analytic System, and the reading was performed with a Flexstation3 plate reader machine.

T1 sequence (P43220 24-463): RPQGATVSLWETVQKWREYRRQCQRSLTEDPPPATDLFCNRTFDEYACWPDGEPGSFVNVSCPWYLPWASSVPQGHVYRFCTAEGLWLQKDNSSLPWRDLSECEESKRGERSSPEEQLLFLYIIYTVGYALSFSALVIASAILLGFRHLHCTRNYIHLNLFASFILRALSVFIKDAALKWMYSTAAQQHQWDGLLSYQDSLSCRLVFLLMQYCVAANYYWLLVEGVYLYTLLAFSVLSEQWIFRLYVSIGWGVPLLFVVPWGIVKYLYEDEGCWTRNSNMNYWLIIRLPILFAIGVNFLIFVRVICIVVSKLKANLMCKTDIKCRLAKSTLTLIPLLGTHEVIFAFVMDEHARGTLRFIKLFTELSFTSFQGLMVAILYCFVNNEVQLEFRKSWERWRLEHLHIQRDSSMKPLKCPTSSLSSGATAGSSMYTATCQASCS

SMILES | activation at 3.16 µM | activation at 10 µM (concentration 10 μM) | also measured
Cc1ccc(-c2ccc(C(=O)NC(Cc3ccc(OC(=O)c4ccc(NC(=O)OC(C)(C)C)cc4)c(F)c3)C(=O)O)o2)cc1 (stereo not shown) [Compound 1A] | – | – | activation at 5 µM: > 60%
CC(C)(C)OC(=O)Nc1ccc(C(=O)NC(C)(Cc2ccc(OC(=O)c3ccc(NC(=O)OC(C)(C)C)cc3)c(F)c2)C(=O)O)cc1 (stereo not shown) [Compound 1B] | > 60% | – | –
CC(C)(C)OC(=O)Nc1ccc(-c2nc(-c3ccc(CC(NC(=O)/C=C/c4ccc(F)cc4)C(=O)O)cc3F)no2)cc1 (stereo not shown) [Compound 1C] | – | > 60% | –
CC(C)(C)OC(=O)Nc1ccc(-c2nc(-c3ccc(CC(NC(=O)C4CC4c4ccccc4)C(=O)O)cc3F)no2)cc1 (stereo not shown) [Compound 1D] | 20 to 40% | – | –
Cc1ccc(-c2ccc(C(=O)N[C@H](Cc3ccc(F)c(-c4noc(-c5ccc(NC(=O)OC(C)(C)C)cc5)n4)c3)C(=O)O)o2)cc1 [Compound 1E] | – | – | activation at 3 µM: 40 to 60%
CC(C)(C)OC(=O)Nc1ccc(-c2nc(-c3ccc(CC(NC(=O)c4ccnc(Cl)c4)C(=O)O)cc3F)no2)cc1 (stereo not shown) [Compound 1F] | – | – | activation at 5 µM: > 60%
Cc1ccc(-c2ccc(C(=O)NC(Cc3ccc(-c4noc(-c5ccc(NC(=O)OC(C)(C)C)cc5)n4)c(F)c3)C(=O)O)o2)cc1 (stereo not shown) [Compound 1G, 3-{4-[5-(4-tert-Butoxycarbonylamino-phenyl)-[1,2,4]oxadiazol-3-yl]-3-fluoro-phenyl}-2-[(5-p-tolyl-furan-2-carbonyl)-amino]-propionic acid] | – | > 60% | –
Cc1ccc(-c2ccc(C(=O)NC(Cc3ccc(-c4noc(-c5ccc(NC(=O)OC(C)(C)C)cc5)n4)c(F)c3)c3nnn[nH]3)o2)cc1 (stereo not shown) [Compound 1H] | > 60% | – | –
CN(C)c1ccc(-c2ccc(C(=O)NC(Cc3ccc(-c4noc(-c5ccc(NC(=O)OC(C)(C)C)cc5)n4)c(F)c3)C(=O)O)o2)cc1 (stereo not shown) [Compound 1I] | > 60% | – | –
COc1ccc(-c2ccc(C(=O)NC(Cc3ccc(-c4noc(-c5ccc(NC(=O)OC(C)(C)C)cc5)n4)c(F)c3)C(=O)O)o2)cc1 (stereo not shown) [Compound 1J] | > 60% | – | –
Cc1cccc(-c2ccc(C(=O)NC(Cc3ccc(-c4noc(-c5ccc(NC(=O)OC(C)(C)C)cc5)n4)c(F)c3)C(=O)O)o2)c1 (stereo not shown) [Compound 1K] | – | > 60% | –
CC(C)(C)OC(=O)Nc1ccc(-c2nc(-c3ccc(CC(NC(=O)c4ccc(-c5ccc(Cl)cc5Cl)o4)C(=O)O)cc3F)no2)cc1 (stereo not shown) [Compound 1L] | > 60% | – | –
Cc1cc(-c2ccc(C(=O)NC(Cc3ccc(-c4noc(-c5ccc(NC(=O)OC(C)(C)C)cc5)n4)c(F)c3)C(=O)O)o2)ccc1F (stereo not shown) [Compound 1M] | – | > 60% | –
Cc1ccc(-c2ccc(C(=O)NC(Cc3ccc(-c4noc(-c5ccc(NC(=O)OC(C)(C)C)cc5)n4)c(F)c3)C(=O)O)o2)cc1F (stereo not shown) [Compound 1N] | – | – | activation at 1 µM: > 60%
CC(C)c1ccc(-c2ccc(C(=O)NC(Cc3ccc(-c4noc(-c5ccc(NC(=O)OC(C)(C)C)cc5)n4)c(F)c3)C(=O)O)o2)cc1 (stereo not shown) [Compound 1O] | 20 to 40% | – | –
Cc1ccc(-c2ccc(C(=O)NC(Cc3ccc(-c4noc(-c5ccc(NC(=O)OC(C)(C)C)cc5C(F)(F)F)n4)c(F)c3)C(=O)O)o2)cc1 (stereo not shown) [Compound 1P] | > 60% | – | –

SMILES | activation at 3.16 µM | activation at 10 µM (concentration 10 μM) | also measured
Cc1ccc(-c2ccc(C(=O)NC(Cc3ccc(-c4noc(-c5ccc(NC(=O)OC(C)(C)C)cc5)n4)c(F)c3)C(=O)O)o2)cc1Cl (stereo not shown) [Compound 1Q] | > 60% | – | –
Cc1ccc(-c2ccc(C(=O)NC(Cc3ccc(-c4noc(-c5ccc(NC(=O)OC(C)(C)C)cc5C)n4)c(F)c3)C(=O)O)o2)cc1 (stereo not shown) [Compound 1R] | – | – | activation at 3 µM: 20 to 40%
CC(C)(C)OC(=O)Nc1ccc(-c2nc(-c3ccc(CC(NC(=O)c4cccc(-c5ccc(Cl)cc5)c4F)C(=O)O)cc3F)no2)cc1 (stereo not shown) [Compound 1S] | – | 40 to 60% | –
CC(C)(C)OC(=O)Nc1ccc(-c2nc(-c3ccc(CC(NC(=O)c4cccc(-c5ccc(F)cc5)n4)C(=O)O)cc3F)no2)cc1 (stereo not shown) [Compound 1T] | – | 40 to 60% | –
Cc1ccc(-c2cccc(C(=O)NC(Cc3ccc(-c4noc(-c5ccc(NC(=O)OC(C)(C)C)cc5)n4)c(F)c3)C(=O)O)c2)cc1 (stereo not shown) [Compound 1U] | – | – | activation at 1 µM: > 60%
CC(C)(C)OC(=O)Nc1ccc(-c2nc(-c3ccc(CC(NC(=O)c4cccc(-c5ccc(F)cc5)c4)C(=O)O)cc3F)no2)cc1 (stereo not shown) [Compound 1V] | – | – | activation at 1 µM: 40 to 60%
CC(C)(C)OC(=O)Nc1ccc(-c2nc(-c3ccc(CC(NC(=O)c4cccc(-c5ccc(C(F)(F)F)cc5)c4)C(=O)O)cc3F)no2)cc1 (stereo not shown) [Compound 1W] | – | – | activation at 3 µM: > 60%
CC(C)(C)OC(=O)Nc1ccc(-c2nc(-c3ccc(CC(NC(=O)c4ccc(-c5ccccn5)s4)C(=O)O)cc3F)no2)cc1 (stereo not shown) [Compound 1X] | – | – | activation at 3 µM: 40 to 60%
CC(C)(C)OC(=O)Nc1ccc(-c2nc(-c3ccc(CC(NC(=O)c4cnc(-c5ccccc5)[nH]4)C(=O)O)cc3F)no2)cc1 (stereo not shown) [Compound 1Y] | – | > 60% | –
CC(C)(C)OC(=O)Nc1ccc(-c2nc(-c3ccc(CC(NC(=O)c4cc(-c5ccccc5)cs4)C(=O)O)cc3F)no2)cc1 (stereo not shown) [Compound 1Z] | – | 40 to 60% | –
CC(C)(C)OC(=O)Nc1ccc(-c2nc(-c3ccc(CC(NC(=O)/C=C/c4ccc(Cl)c(C(F)(F)F)c4)C(=O)O)cc3F)no2)cc1 (stereo not shown) [Compound 2B] | – | – | activation at 3 µM: 40 to 60%
Cc1ccc(-c2ccc(C(=O)NC(Cc3ccc(-c4noc(-c5ccc(NC(=O)C(C)C)cc5)n4)c(F)c3)C(=O)O)o2)cc1 (stereo not shown) [Compound 2C] | – | – | activation at 3 µM: 40 to 60%
Cc1ccc(-c2ccc(C(=O)NC(Cc3ccc(-c4noc(-c5ccc(NC(=O)OC(C)C)cc5)n4)c(F)c3)C(=O)O)o2)cc1 (stereo not shown) [Compound 2D] | – | – | activation at 1 µM: 40 to 60%
Cc1ccc(-c2ccc(C(=O)N[C@H](Cc3cc(C)cc(-c4noc(-c5ccc(NC(=O)OC(C)(C)C)cc5)n4)c3)C(=O)O)o2)cc1 [Compound 2E] | – | – | activation at 3 µM: 40 to 60%
CC(C)(C)OC(=O)Nc1ccc(-c2nc(-c3ccc(CC(NC(=O)c4cccc(-c5ccc(C6CC6)cc5)c4)C(=O)O)cc3F)no2)cc1 (stereo not shown) [Compound 2L] | – | – | activation at 1 µM: > 60%
Cc1ccc(-n2cc(C(=O)NC(Cc3ccc(-c4noc(-c5ccc(NC(=O)OC(C)(C)C)cc5)n4)c(F)c3)C(=O)O)cn2)cc1F (stereo not shown) [Compound 2P, 3-(4-(5-(4-((tert-butoxcarbonyl)amino)phenyl)-1,2,4-oxadiazol-3-yl)-3-fluorophenyl)-2-(1-(3-fluoro-4-methylphenyl)-1H-pyrazole-4-carboxamido)propanoic acid] | – | – | Activity (agonist), percentage of the activity of the control (concentration 10 μM): A (A represents a value no smaller than 60%)

The next lines start with results.

activation at 3.16 µM | activation at 10 µM (concentration 10 μM) | SMILES | also measured
– | > 60% | CC(C)(C)OC(=O)Nc1ccc(-c2nc(-c3ccc(CC(NC(=O)c4cn(-c5ccc(C(F)(F)F)cc5)nn4)C(=O)O)cc3F)no2)cc1 (stereo not shown) [Compound 2A] | –
– | 10 to 20% | Cc1ccc(-c2cccc(C(=O)NC(Cc3ccc(-c4noc(-c5ccc(NC(=O)OC(C)(C)C)cc5)n4)c(F)c3)C(=O)O)n2)cc1 (stereo not shown) [Compound 2F] | –
– | 40 to 60% | CC(C)(C)OC(=O)Nc1ccc(-c2nc(-c3ccc(CC(NC(=O)c4cccc(-c5ccc(Cl)cc5)c4)C(=O)O)cc3F)no2)cc1 (stereo not shown) [Compound 2G] | –
– | 40 to 60% | CCc1ccc(-c2cccc(C(=O)NC(Cc3ccc(-c4noc(-c5ccc(NC(=O)OC(C)(C)C)cc5)n4)c(F)c3)C(=O)O)c2)cc1 (stereo not shown) [Compound 2I] | –
> 60% | – | CC(C)(C)OC(=O)Nc1ccc(-c2nc(-c3ccc(CC(NC(=O)c4cccc(-c5ccc(C#N)cc5)c4F)C(=O)O)cc3F)no2)cc1 (stereo not shown) [Compound 2J] | –
> 60% | – | CC(C)c1ccc(-c2cccc(C(=O)NC(Cc3ccc(-c4noc(-c5ccc(NC(=O)OC(C)(C)C)cc5)n4)c(F)c3)C(=O)O)c2)cc1 (stereo not shown) [Compound 2K] | –
> 60% | – | CC(C)(C)OC(=O)Nc1ccc(-c2nc(-c3ccc(CC(NC(=O)c4cccc(-c5ccc(C6CC6)cc5)n4)C(=O)O)cc3F)no2)cc1 (stereo not shown) [Compound 2M] | –
> 60% | – | CC(C)(C)OC(=O)Nc1ccc(-c2nc(-c3ccc(CC(NC(=O)c4cccc(-c5ccc(Cl)cc5F)n4)C(=O)O)cc3F)no2)cc1 (stereo not shown) [Compound 2N] | –
– | > 60% | CSc1ccc(-c2cccc(C(=O)NC(Cc3ccc(-c4noc(-c5ccc(NC(=O)OC(C)(C)C)cc5)n4)c(F)c3)C(=O)O)n2)cc1 (stereo not shown) [Compound 2O] | –
> 60% | – | Cc1cc(-c2nc(C(=O)NC(Cc3ccc(-c4noc(-c5ccc(NC(=O)OC(C)(C)C)cc5)n4)c(F)c3)C(=O)O)c[nH]2)ccc1F (stereo not shown) [Compound 2Q] | –
> 60% | – | Cc1ccc(-c2nc(C(=O)NC(Cc3ccc(-c4noc(-c5ccc(NC(=O)OC(C)(C)C)cc5)n4)c(F)c3)C(=O)O)c[nH]2)cc1 (stereo not shown) [Compound 2R] | –
